Converted amounts (≈) assume the structure as drawn. Marks after values point to notes of the source that are not given here.
Columns and labels:
Format in all cases: cell-based, Staphylococcus aureus
MW2 (USA400) CA-MRSA = assay: Minimum bactericidal concentration (MBC); settings: for combination: MBC of oxacillin with ¼ MIC cefoxitin
Experimental: (§1) Minimum inhibitory concentrations and minimum bactericidal concentrations (MIC and MBC, respectively) were determined for each isolate in triplicate by microdilution techniques with an inoculum of 5×10^5 CFU/ml according to the Clinical and Laboratory Standards Institute guidelines. Aliquots (5 μl) from clear wells were plated onto TSA drug-free plates for the determination of MBCs, followed by incubation at 37° C. for 24 and 48 hours. For the mutant strains, each one of the three clones was tested. MIC data were reported as median values from at least three independent experiments for each antibiotic. Also, strains containing pEPSA5-based plasmids were tested with and without xylose induction, but chloramphenicol was not added to avoid interference with beta-lactam resistance evaluation. […] The correct inocula were confirmed by plating serial dilutions on agar.

USA300 CA-MRSA = assay: Minimum bactericidal concentration (MBC); settings: for combination: MBC of oxacillin with ¼ MIC cefoxitin
Experimental: as §1

[1] = system: HA-MRSA Strains (30 clinical isolates); assay: MIC and synergy assay, clinical isolates
Description: (§2) Analysis of the Type IV SCCmec element, virtually identical between MW2 and USA300, allowed for identification of four genes conserved in the CA-MRSA background, but not in other known MRSA genomes. These four genes therefore served as biomarkers that could be used to distinguish CA-MRSA strains from HA-MRSA strains. PCR of chromosomal DNAs with oligonucleotides specific for mecA, pvl (Lina, G. et al. 1999. Clin. Infect. Dis. 29:1128-1132) and the four specific genes for CA-MRSAs (MW0042/USA300_0041; MW0043/USA300_0042; MW0046/USA300_0045; and MW0047/USA300_0046) identified 30 isolates positive for these genes. […] The code was subsequently broken, confirming that all 30 isolates, designated as CA-MRSA, were from patients with primary skin infections and annotated by the donating hospital as CA-MRSA while the other were blood isolates designated as HA-MRSA. […] The synergistic inhibitory activity of the combined treatment also was further tested on 30 MRSA isolates from complicated skin and soft tissue infections, with CA-MRSA being the most common etiologic agent.
(§3) Two independent batches of clinical isolates were obtained from the Dartmouth Hitchcock Medical Center, Lebanon, N.H. The first group included 200 blood MRSA isolates sub-cultured on 5% Columbia sheep blood agar (Remel). The second group involved 30 MRSA isolates from complicated skin and soft tissue infections (CSSTI) similarly sub-cultured. All strains were grown overnight in CSMHB broth and streaked on selective mannitol salt agar plates for confirmation. DNA extraction was performed on 500 μl of cultures. PCR was performed on all DNAs with oligonucleotides specific for mecA, pvl and the four genes found to be specific for the SCCmec type IV in CA-MRSA: MW0042, MW0043, MW0046, and MW0047. DNA amplification of mecA was used as a control to confirm that all strains were MRSA. DNAs from S. epidermidis, E. coli and S. pneumoniae were used as negative controls to confirm the specificity of the oligonucleotides. After amplification for 30 cycles (5 min of denaturation at 95° C., 30 s of annealing at 54° C. and 1 min extension at 72° C.), PCR products were resolved by electrophoresis through 1.5% agarose gels stained with ethidium bromide. Given the number of clinical isolates tested, only a small random group of PCR products were subjected to DNA sequencing to confirm specificity. S. aureus strain COL, Mu50, N315 and MRSA252 all tested negative for all MW0042, MW0043 and MW0047 and pvl while USA300 and MW2 were positive controls for this PCR reaction. The primer sequences for mecA, MW0042, MW0043 and MW0047 were as follows: mecA-UP 5′-GGTACTGCTATCCACCCTCAAA-3′ (SEQ ID NO:19), mecA-LOW 5′-TTACGACTTGTTGCATACCATCA-3′ (SEQ ID NO:20), MW0042-UP 5′-ATTGGCAGAAATAAACAAAACG-3′ (SEQ ID NO:21), MW0042-LOW 5′-TCGTTTAATTTTTTCCCAAACTC-3′ (SEQ ID NO:22), MW0043-UP 5′-GTTTCAGTTGGTGTTGAAGATCC-3′ (SEQ ID NO:23), MW0043-LOW 5′-CCTATAATTTTCGATAGATTCGTG-3′ (SEQ ID NO:24), MW0047-UP 5′-AGGCATATAAAGAAGCAGGAAAG-3′ (SEQ ID NO:25), MW0047-LOW 5′-CACACTGTTTTCCTACGATATTTG-3′ (SEQ ID NO:26).
as §1, with “agar. […]” for “agar.”

[2] = system: CA-MRSA Strains (30 clinical isolates); assay: MIC and synergy assay, clinical isolates
Description: as §2, §3
as §1, with “agar. […]” for “agar.”

[3] = system: CA-MRSA from CSSTI (30 isolates); assay: MIC and synergy assay, clinical isolates
Description: as §2, §3
as §1, with “agar. […]” for “agar.”

MW2 ex Δpbp3/4 = assay: MIC by microdilution (CLSI)
Description: Experiments were first performed using mutants of various PBPs. In-frame deletion mutants of the genes encoding PBP3 (MW1504) and PBP4 (MW0604), pbp3 and pbp4 respectively, were generated in the CA-MRSA strain MW2 and in HA-MRSA strain COL using the temperature-sensitive allelic replacement vector pMAD (Arnaud, M. et al. 2004. Appl. Environ. Microbiol. 70:6887-6891). PBP4 was also deleted in the HA-MRSA strains Mu50 and N315 and in the CA-MRSA strain USA300. […] Minimum inhibitory concentrations (MICs) were determined according to the Clinical and Laboratory Standards Institute and are a standard method for defining antibiotic efficacy against different organisms. Bacteria, grown to an OD650=1, were added to cation-supplemented Mueller Hinton broth (CSMHB) to achieve a final concentration of 5×10^5 CFU/ml.
as §1

[4] = Staphylococcus aureus, MRSA, 48 h, read-out: MICs 48 hr

| Compound | MBC 48 hr (MW2 (USA400) CA-MRSA) [µg/mL] | MBC 48 hr (USA300 CA-MRSA) [µg/mL] | MIC [1, 4] [µg/mL] | MIC [2, 4] [µg/mL] | MIC [3, 4] [µg/mL] | MIC (MW2 ex Δpbp3/4; Staphylococcus aureus, read-out: MICs) [µg/mL] | MICs 48 hr ([1]; 30 HA-MRSA clinical isolates, median values, 48 hr) | MICs 48 hr ([2]; 30 CA-MRSA clinical isolates, median values, 48 hr) | MICs 48 hr ([3]; 30 CSSTI isolates, median values, 48 hr) | MICs (MW2 ex Δpbp3/4; Table 1, MW2 ex Δpbp3/4) [µg/mL] |
| --- | --- | --- | --- | --- | --- | --- | --- | --- | --- | --- |
| CO[C@@]1(NC(=O)Cc2cccs2)C(=O)N2C(C(=O)O)=C(COC(N)=O)CS[C@@H]21 [CX, cefoxitin] | > 256 | > 256 | 128 | 64 | 64 | 32 (≈ 74.9 µM) |  |  |  |  |
| Cc1onc(-c2ccccc2)c1C(=O)N[C@@H]1C(=O)N2[C@@H]1SC(C)(C)[C@@H]2C(=O)O [OX, oxacillin] | 256 | 256 |  |  |  |  | 256^b μg/ml | 64^b μg/ml | 64^b μg/ml | 1 |

From patent US9427468B2, “Compositions and methods for diagnosing and treating community-acquired methicillin-resistant Staphylococcus aureus” (priority 2007, dated 2016)
